Reference: US12103916B2, “Antifungal compounds” (University of Kentucky Research Foundation, priority 2016, dated 2024)
Where two headings read alike, the source gives them in different places. Marks after values point to notes of the source that are not given here.

What was measured:
[1] = test system: ergosterol biosynthetic pathway (sterol 14α-demethylase) in C. albicans ATCC 10231 (strain A); assay: Sterol composition by GC-MS, strain A; type: cell-based, Candida albicans
Description: (§1) FIG. 7A-FIG. 7H includes FIG. 7A. A simplified ergosterol biosynthetic pathway and products resulting from inhibition of ERG11. FIG. 7B-G. include GC-MS chromatograms of the sterols extracted from untreated and antifungals treated C. albicans strains. […] The peaks are for lanosterol (1), ergosterol (2), eburicol (3), 14-alpha-methyl ergosta 8,24(28)-dien-3-beta,6-alpha-diol (4), and unknown sterols (5 and 6). FIG. 7H is a table summarizing the percentage of each sterol from panels B-G.
FIG. 13A. A simplified ergosterol biosynthetic pathway and products resulting from inhibition of ERG11. FIG. 13B-FIG. 13F. GC-MS chromatograms of the sterols extracted from untreated and antifungal-treated C. albicans ATCC 10231 (strain A). […] The peaks in these chromatograms are for lanosterol (1), ergosterol (2), eburicol (3), 14α-methyl ergosta-8,24(28)-dien-3β,6α-diol (4), and three unknown sterols (5-7). FIG. 13G includes a table summarizing the percentage of each sterol from panels B-F.
(§2) No drug controls were also performed (FIGS. 7D and G).
Determination of sterol composition in c. albicans in the presence and absence of drugs. […] By using gas chromatography-mass spectrometry (GC-MS), we investigated the potential of the synthetic compounds to exert their antifungal activity by inhibiting the sterol 14α-demethylase enzyme of the ergosterol biosynthetic pathway (FIG. 13). […] A no drug control was also performed (FIG. 13A).
Since out of our compounds displaying antifungal activity only compound 8 caused membrane disruption of C. albicans ATCC 10231 (strain A) in the membrane permeabilization assay (section 2.6), we decided to explore by using gas chromatography-mass spectrometry (GC-MS) the effect of compounds 8 and 9 on sterol composition during ergosterol biosynthesis (the mechanism of action of other conventional azoles). […] We also used VOR at 0.12 μg/mL and no drug control for comparison.

C. albicans ATCC 64124 [2] = assay: MIC determination, strain B; type: cell-based, Candida albicans; settings: Candida albicans, ATCC64124
Description: (§3) The antifungal activity of our new azole compounds 1-9 and 24-41 was first evaluated against a panel of seven Candida albicans strains (A-G), three non-albicans Candida strains […], and three Aspergillus strains (K-M) in a concentration range of 0.03-31.2 μg/mL (Table 1). […] For all of our azole derivatives we report their MIC-0 values against C. albicans ATCC 10231 (strain A) and all Aspergillus strains (K-M), which correspond to complete growth inhibition of these fungi. […] The commercially available antifungals AmB, FLC, ITC, POS, and VOR were used as reference drugs for comparison. The MIC values presented for these five control drugs were either tested herein or correspond to our previously published data^5, 16 as indicated in Table 1.
(§4) Antifungal activity in the absence or presence of serum. The antifungal activity of the newly prepared alkylated piperazine/morpholine-azole hybrids 16-28, of intermediate 14 that we used to verify that only final compounds exert antifungal activity, as well as that of alkylated piperazine/morpholine derivatives 1-10 were first evaluated against a panel of seven C. albicans (ATCC 10231 (A), ATCC 64124(R) (B), ATCC MYA-2876(S) (C), ATCC 90819(R) (D), ATCC MYA-2310(S) (E), ATCC MYA-1237(R) (F), and ATCC MYA-1003(R) (G)), three non-albicans Candida (C. glabrata ATCC 2001 (H), C. krusei ATCC 6258 (I), and C. parapsilosis ATCC 22019 (J)), and three Aspergillus (A. flavus ATCC MYA-3631 (K), A. nidulans ATCC 38163 (L), and A. terreus ATCC MYA-3633 (M)) strains using a concentration range of 0.03-31.3 μg/mL (Table 2).
(§5) Commercially available antifungal agents such as AmB, CAS, FLC, and VOR were used as positive controls for comparison. […] It is important to note that all comparisons to follow will be done by using the MIC values reported in μg/mL as the data were collected that way. However, we also present in parentheses in Table 2 the corresponding values in micromolar.
(§6) We used the commercially available antifungal agents such as AmB, caspofungin (CAS), FLC, and VOR as positive controls for comparison. For derivatives 5-16 as well as the reference drugs AmB and CAS, we reported MIC-0 values, which correspond to no visible growth. […] In this manuscript, we performed all activity comparisons by using the MIC values reported in μg/mL (Note: the corresponding MIC values are also provided in μM into parentheses in Tables 1, 2, S1, and S2).

[3] = test system: C. albicans ATCC MYA-2876(S); settings: Table 1; strain C; control azoles; previously reported (refs 5, 16); cited from earlier work
[4] = test system: Candida parapsilosis ATCC 22019; assay: MIC determination, strain J; type: cell-based; settings: Lodderomyces parapsilosis, ATCC22019
Description: as §3, §4, §5, §6

[5] = test system: Candida glabrata ATCC 2001; assay: MIC determination, strain H; type: cell-based; settings: Nakaseomyces glabratus, ATCC2001
Description: as §3, §4, §5, §6

[6] = test system: C. albicans ATCC MYA-2310(S); settings: Table 1; strain E; control azoles; previously reported (refs 5, 16); cited from earlier work
[7] = bulk form; cited from earlier work
Candida krusei ATCC 6258 [8] = assay: MIC determination, strain I; type: cell-based; settings: Pichia kudriavzevii, ATCC6258
Description: as §3, §4, §5, §6

[9] = test system: Candida glabrata ATCC 2001; settings: Table 1; strain H; control azoles; previously reported (refs 5, 16); cited from earlier work
[10] = test system: C. albicans ATCC MYA-2876(S); assay: MIC determination, strain C; type: cell-based, Candida albicans; settings: Candida albicans
Description: as §3, §4, §5, §6

Candida krusei ATCC 6258 [11] = settings: Table 1; strain I; control azoles; previously reported (refs 5, 16); cited from earlier work
[12] = test system: Candida parapsilosis ATCC 22019; settings: Table 1; strain J; control azoles; previously reported (refs 5, 16); cited from earlier work
[13] = test system: C. albicans ATCC MYA-2310(S); assay: MIC determination, strain E; type: cell-based, Candida albicans; settings: Candida albicans
Description: as §3, §4, §5, §6

[14] = test system: C. albicans ATCC 90819(R); assay: MIC determination, strain D; type: cell-based, Candida albicans; settings: Candida albicans, ATCC90819
Description: as §3, §4, §5, §6

[15] = test system: ergosterol biosynthetic pathway (sterol 14α-demethylase) in C. albicans ATCC 64124 (strain B); assay: Sterol composition by GC-MS, strain B; type: cell-based, Candida albicans; settings: Ex.1 series, 1.95 μg/mL
Description: as §1, §2

[16] = test system: C. albicans ATCC MYA-1003(R); settings: Table 1; strain G; control azoles; previously reported (refs 5, 16); cited from earlier work
C. albicans ATCC 64124 [17] = settings: Table 1; strain B; control azoles; previously reported (refs 5, 16); cited from earlier work
[18] = test system: Aspergillus terreus ATCC MYA-3633; settings: Table 1; strain M; control azoles; previously reported (refs 5, 16); cited from earlier work
[19] = test system: Aspergillus nidulans ATCC 38163; settings: Table 1; strain L; control azoles; previously reported (refs 5, 16); cited from earlier work
[20] = test system: Aspergillus flavus ATCC MYA-3631; settings: Table 1; strain K; control azoles; previously reported (refs 5, 16); cited from earlier work
[21] = test system: C. albicans ATCC MYA-1237(R); settings: Table 1; strain F; control azoles; previously reported (refs 5, 16); cited from earlier work
[22] = test system: C. albicans ATCC 90819(R); settings: Table 1; strain D; control azoles; previously reported (refs 5, 16); cited from earlier work
[23] = test system: Candida albicans ATCC 10231; settings: Table 1; strain A; control azoles FLC, ITC, POS, VOR; previously reported (refs 5, 16); cited from earlier work
[24] = read-out: MIC (MIC-2), in parentheses

OC(Cn1cncn1)(Cn1cncn1)c1ccc(F)cc1F [FLC, fluconazole]
ergosterol, percentage of sterols ([1]; Ex.1 series, 0.125 μg/mL): ~93%
ergosterol (2), percentage of sterols ([1]; Ex.2 series, FLC 1.95, VOR 0.12, 20 0.48, 26 0.975 μg/mL): 95.90%
MIC (C. albicans ATCC 64124 [2]; read-out: MIC (MIC-2)): > 125 µg/mL
MIC (C. albicans ATCC 64124 [2]; [24]): > 408 µM
MIC (MIC-2) [3]: 15.6^b μg/mL
MIC ([4]; read-out: MIC (MIC-2)): 1.95 µg/mL
MIC [4, 24]: 6.4 µM
MIC ([5]; read-out: MIC (MIC-2)): > 31.3 µg/mL
MIC [5, 24]: > 102 µM
MIC (MIC-2) [6]: >125^b μg/mL
solubility in organic solvents such as DMSO [7]: highly soluble
solubility in water [7]: only slightly soluble
MIC (Candida krusei ATCC 6258 [8]; read-out: MIC (MIC-2)): > 31.3 µg/mL
MIC (Candida krusei ATCC 6258 [8]; [24]): > 102 µM
MIC (MIC-2) [9]: >31.2^c μg/mL
MIC ([10]; read-out: MIC (MIC-2)): 15.6 µg/mL
MIC [10, 24]: 50.9 µM
MIC (MIC-2) (Candida krusei ATCC 6258 [11]): >31.2^c μg/mL
MIC (MIC-2) [12]: 1.95^c μg/mL
MIC ([13]; read-out: MIC (MIC-2)): > 125 µg/mL
MIC [13, 24]: > 408 µM
MIC ([14]; read-out: MIC (MIC-2)): > 125 µg/mL
MIC [14, 24]: > 408 µM
eburicol, percentage of sterols [15]: ~12%
ergosterol, percentage of sterols [15]: ~48%
lanosterol, percentage of sterols [15]: ~30%

CCC(C)n1ncn(-c2ccc(N3CCN(c4ccc(OCC5COC(Cn6cncn6)(c6ccc(Cl)cc6Cl)O5)cc4)CC3)cc2)c1=O (stereo not drawn) [ITC, itraconazole]
MIC (MIC-2) [16]: 31.2^b μg/mL
MIC (MIC-2) (C. albicans ATCC 64124 [17]): >62.5^b μg/mL
MIC (MIC-2) [3]: 7.8^b μg/mL
MIC (MIC-2) [18]: 0.975^c μg/mL
MIC (MIC-2) [19]: 0.195^b μg/mL
MIC (MIC-2) [20]: 0.48^c μg/mL
MIC (MIC-2) [21]: 31.2^b μg/mL
MIC (MIC-2) [6]: 31.2^b μg/mL
MIC (MIC-2) [9]: 7.8^c μg/mL
MIC (MIC-2) [22]: 31.2^b μg/mL
MIC (MIC-2) (Candida krusei ATCC 6258 [11]): 0.48^c μg/mL
MIC (MIC-2) [23]: 0.5^b μg/mL
MIC (MIC-2) [12]: 0.12^c μg/mL

CC[C@@H]([C@H](C)O)n1ncn(-c2ccc(N3CCN(c4ccc(OC[C@@H]5CO[C@@](Cn6cncn6)(c6ccc(F)cc6F)C5)cc4)CC3)cc2)c1=O [POS, posaconazole]
MIC (MIC-2) [16]: 15.6^b μg/mL
MIC (MIC-2) (C. albicans ATCC 64124 [17]): >62.5^b μg/mL
MIC (MIC-2) [3]: 7.8^b μg/mL
MIC (MIC-2) [18]: 0.48^c μg/mL
MIC (MIC-2) [19]: 0.195^b μg/mL
MIC (MIC-2) [20]: 0.24^c μg/mL
MIC (MIC-2) [21]: 15.6^b μg/mL
MIC (MIC-2) [6]: 31.2^b μg/mL
MIC (MIC-2) [9]: 0.12^c μg/mL
MIC (MIC-2) (Candida krusei ATCC 6258 [11]): 0.06^c μg/mL
MIC (MIC-2) [23]: 0.5^b μg/mL
MIC (MIC-2) [12]: <0.03^c μg/mL
